Measurements published in patent US6995269B2, “Guanidinobenzamides” (Chiron Corporation, priority 2000, dated 2006).

Key:
Type in all cases: in vivo
ob/ob mice [1] = test: Body weight in ob/ob mice, 4 week IP treatment; settings: 3 mg/kg IP twice daily for 4 weeks
Method: (§1) In vivo studies were conducted to observe the effect of MCR-4 agonists on energy intake, body weight, hyperinsulinemia, and glucose levels. All studies were conducted with male-9–10 week old ob/ob mice which display early onset of obesity, insulin resistance and diabetes due to leptin deficiency. Mice were acclimated in the facility for 1 week before studies and are caged individually. Vehicle-treated (control) and drug treated mice studies were always run in parallel. In multi-day studies, mice (8–15 per group) were monitored for baseline body weight, fasting levels of glucose, insulin, blood lipids and energy expenditure and then injected twice daily (9 a.m. and 5 p.m.) with 3 mg/kg of the MC4-R agonist 4-[(N-cyclohexyl-3,5-dimethyl-piperazine-1-carboximidoyl)-amino]-N-[2-(2,4-dichlorophenyl)-ethyl]-benzamide for 4 weeks. Body weight as well as food and water intake were monitored daily. […] Energy expenditure (resting metabolic rate, i.e., O2 consumption and CO2 production) were monitored in air tight chambers at the end of the study on fed animals. O2 consumption and CO2 production were measured using Oxymax systems (Columbus Instruments). […] Blood glucose and oral glucose tolerance were measured using a glucose monitor (Onetouch sold by Lifescan). Free fatty acids were measured using an non-esterified free fatty acids enzymatic assay (Waco Chemicals). […]

ob/ob mice [2] = test: Serum insulin levels after single IP dosing in ob/ob mice; settings: overnight fasted ob/ob mice
Method: as §1

ob/ob mice [3] = test: Oral glucose tolerance test (OGTT) in ob/ob mice at end of study; settings: overnight fasted ob/ob mice at end of 4 week study, oral glucose load, vs vehicle
Method: as §1

ob/ob mice [4] = test: Fasting blood glucose in ob/ob mice, 4 week IP treatment; settings: ob/ob mice fasted overnight, 3 mg/kg IP twice daily for 4 weeks, vs vehicle
Method: as §1

ob/ob mice [5] = test: Free fatty acid levels in ob/ob mice; settings: ob/ob mice fasted overnight, drug treated IP vs vehicle
Method: as §1

ob/ob mice [6] = test: Food intake in ob/ob mice, 4 week IP treatment; settings: 3 mg/kg IP twice daily for 4 weeks, vs vehicle
Method: as §1

## CC1CN(C(=NC2CCCCC2)Nc2ccc(C(=O)NCCc3ccc(Cl)cc3Cl)cc2)CC(C)N1 (stereo not shown) [4-[(N-cyclohexyl-3,5-dimethyl-piperazine-1-carboximidoyl)-amino]-N-[2-(2,4-dichlorophenyl)-ethyl]-benzamide]
ob/ob mice [1]
  body weight less than the vehicle treated mice at the end of the study: 19%
ob/ob mice [2]; one hour after single IP dosing of 1 mg/kg
  decrease of serum insulin levels relative to vehicle: 27%
ob/ob mice [2]; one hour after single IP dosing of 3 mg/kg
  decrease of serum insulin levels relative to vehicle: 55%
ob/ob mice [3]
  decrease of the area under the curve of glucose in OGTT: 45%
ob/ob mice [4]
  decrease in fasting blood glucose levels: 47%
ob/ob mice [5]
  decrease in free fatty acid (FFA) levels: 50%
ob/ob mice [6]
  food intake: significant reduction in food intake
